We go through 14 molecules from PubChem BioAssay AID2060492 (Molecular Pharmacology Branch, DTP, NCI, 2025).

In the assay the test system is 695427-040-R-J1-PDC complex spheroids, viability percent T/C. Kind of assay: Anticancer human tumor 695427-040-R-J1-PDC patient-derived colon adenocarcinoma cell line growth inhibition [GQUAD]. The conditions noted are these: for viability, T/C: stronger effect = lower value. The source says:
DNA G-quadruplex Stabilizer Agents in Combinations in Complex Spheroids
A high-throughput screen of multi-cell type tumor spheroids was designed to identify active combinations of DNA G-quadruplex stabilizer agents and targeted small molecules. Complex spheroids include a stromal component modeled by human endothelial cells (HUVEC) and fibroblasts modeled by human mesenchymal stem cells (MSCs). The concentration ranges selected for each drug and investigational agent were based upon clinically achievable concentrations if the clinical Cmax of the agent was known.
Compounds. The drugs and investigational agents: pidnarulex (CX-5461; NSC782164), APTO-253 (NSC789042), BRACO-19 (NSC847499), peposertib (NSC802822), ceralasertib (NSC780249), elimusertib (NSC800525), camonsertib (NSC841442), AZD-1390 (NSC803789), olaparib (NSC753686), talazoparib (NSC767125), ART-558 (NSC835418), sotorasib (NSC818433), MRTX-1133 (NSC836407), SN-38 (NSC673596), topotecan (NSC609699), etoposide (NSC141540), doxorubicin (NSC123127), gemcitabine (NSC613327), 5-fluorouracil (NSC19893), paclitaxel (NSC125973), vemurafenib (NSC761431), panobinostat (NSC761190), R-306465 (JNJ-16241199; NSC773264), adavosertib (NSC754352), TP-3654 (NSC805149), carboplatin (NSC241240), KSQ-4279 (NSC840948), and staurosporine (NSC755774) were obtained from the National Cancer Institute (NCI) Developmental Therapeutics Program Chemical Repository (34). The FDA-approved anticancer drug set is available from the NCI Developmental Therapeutics Program. […] The stock solutions were prepared in dimethyl sulfoxide (DMSO, Sigma-Aldrich, St. Louis, MO, cat. D2650) at 800-fold the tested concentration and stored at -70 degrees C prior to their use. All drugs and investigational agents were tested over a range starting from a high concentration at or near the clinical Cmax and decreasing in half-log increments. If the clinical Cmax for an agent had not been determined, the highest concentration tested was 10 microM.
2.3 Cell Culture. All cells were maintained in an incubator at 37 degrees C and 5% CO2 with 95% humidity. The PDC lines were cultured according to standard operating procedures established by the NCI PDMR. All PDCs were thawed and cultured in Matrigel-coated flasks prepared with a working solution of 1X Ham's F-12 nutrient mix, without supplementation (Invitrogen, cat. 11765054), 100 U/mL penicillin-streptomycin (Invitrogen, cat. 15140122), and 2.5% Matrigel (Corning Inc., cat. 354248) for the first three passages. The 857933-349-R-J2-PDC line was cultured in 6C/Colon 1B media, which includes advanced DMEM/F-12 (Thermo Fisher Scientific, cat. 12634028), 10 mM HEPES (Thermo Fisher Scientific, cat. 15630080), 1X GlutaMAX supplement (Thermo Fisher Scientific, cat. 35050061), 0.1 mg/mL primocin (InvivoGen, cat. ant-pm-2), 10% defined fetal bovine serum, heat inactivated (HyClone Laboratories Inc., cat. SH30070.03HI), 50% L-WRN conditioned media (ATCC, cat. CRL-3276), 1.25 mM N-Acetyl-L-cysteine (Sigma-Aldrich, cat. A9165), 10 mM nicotinamide (Sigma-Aldrich, cat. N0636), 1X B-27 supplement (Thermo Fisher Scientific, cat. 17504044), 1X N-2 supplement (Thermo Fisher Scientific, cat. 17502048), 10 microM Y-27632 dihydrochloride (Tocris Bioscience, cat. 1254), and 50 ng/mL human EGF recombinant protein (Thermo Fisher Scientific, cat. PHG0311). The 485176-168-R4-J1-PDC line was cultured in Panc media, which includes all 6C/Colon 1B media components plus 100 ng/mL human FGF-10 (Thermo Fisher Scientific, cat. 100-26), 500 nM SB-431542 (Selleckchem, cat. S1067), and gastrin (Tocris, cat. 3006).
[…]

Molecules are shown by their SMILES. Where “and” joins values, the source holds several entries; their conditions need not be identical. Equal entries are not always repeated.
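Also: spheroids exposed to compounds for seven days before readout.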

Regarding `C#Cc1c(F)ccc2cc(O)cc(-c3ncc4c(N5CC6CCC(C5)N6)nc(OCC56CCCN5CC(F)C6)nc4c3F)c12` (stereo not given), the viability, T/C (compound 0.0316 µM) is 95.2% and 101% and 104%; the viability, T/C (compound 0.1 µM) was 102% and 103% and 111%; the viability, T/C (compound 0.316 µM) is 95.2% and 99.6% and 102%; the viability, T/C (compound 1 µM) was 94.3% and 81.3% and 97.2%; the viability, T/C (compound 3.16 µM) was 56.7% and 17.5% and 103%; the viability, T/C (compound 10 µM) was 59% and 15.6% and 82.1%. In addition, under “curve of compound”, the IC50 was > 10 µM and 1.76 µM.
In the case of `C=CC(=O)N1CCN(c2nc(=O)n(-c3c(C)ccnc3C(C)C)c3nc(-c4c(O)cccc4F)c(F)cc23)C(C)C1` (stereo not given), the viability, T/C was 97.2% and 103% and 104% (compound 0.0316 µM); 93.4% and 97.8% and 82.5% (compound 0.1 µM); 103% and 101% and 102% (compound 0.316 µM); 98.8% and 105% and 85.6% (compound 1 µM); 92.6% and 110% and 68.9% (compound 3.16 µM); 90.5% and 106% and 97.2% (compound 10 µM). Moreover, for the setting “curve of compound”, the concentration for half-maximal inhibition (IC50) is > 10 µM.
In the case of `C=CCn1c(=O)c2cnc(Nc3ccc(N4CCN(C)CC4)cc3)nc2n1-c1cccc(C(C)(C)O)n1`, the viability, T/C reads like this: (compound 0.0316 µM) 102% and 100% and 86.2%; (compound 0.1 µM) 105% and 85.8% and 89.5%; (compound 0.316 µM) 107% and 86.4% and 87.7%; (compound 1 µM) 105% and 80.5% and 61.6%; (compound 3.16 µM) 107% and 68.6% and 54.9%; (compound 10 µM) 66.5% and 54.9% and 35.4%. Also, the concentration for half-maximal inhibition (IC50) (curve of compound) is > 10 µM and 3.18 µM.
In the case of `CC(=O)O[C@H]1C(=O)[C@@]2(C)[C@H]([C@H](OC(=O)c3ccccc3)[C@]3(O)C[C@H](OC(=O)[C@H](O)[C@@H](NC(=O)c4ccccc4)c4ccccc4)C(C)=C1C3(C)C)[C@]1(OC(C)=O)CO[C@@H]1C[C@@H]2O`, the viability, T/C is 92.5% and 97.5% and 84.8% (compound 0.0316 µM); 90.5% and 92.7% and 88.8% (compound 0.1 µM); 72.9% and 89.3% and 82.4% (compound 0.316 µM).
Turning to `CC(C)(O)C1CCC(Nc2ccc3ncc(-c4cccc(C(F)(F)F)c4)n3n2)CC1` (stereo not given), the viability, T/C runs as follows: (compound 0.0316 µM) 109% and 99.2% and 78.5%; (compound 0.1 µM) 101% and 97.4% and 88.4%; (compound 0.316 µM) 111% and 94.6% and 101%; (compound 1 µM) 105% and 80.1% and 66.9%; (compound 3.16 µM) 97.6% and 16% and 12.7%; (compound 10 µM) 87.6% and 15.5% and 13.5%. For the same molecule, where the note is “curve of compound”, the IC50 was > 10 µM and 1.72 µM and 1.44 µM.
For the molecule `CCCS(=O)(=O)Nc1ccc(F)c(C(=O)c2c[nH]c3ncc(-c4ccc(Cl)cc4)cc23)c1F`, the viability, T/C was 96% and 108% and 99.2% (compound 0.0316 µM); 92.3% and 101% and 87.5% (compound 0.1 µM); 90.3% and 110% and 114% (compound 0.316 µM); 79.9% and 102% and 101% (compound 1 µM); 65.4% and 116% and 103% (compound 3.16 µM); 58.2% and 67.2% and 40.1% (compound 10 µM). For the same molecule, the half-inhibitory concentration (IC50) (curve of compound) is > 10 µM and 8.3 µM.
`COc1cc(C2c3cc4c(cc3C(OC3OC5COC(C)OC5C(O)C3O)C3COC(=O)C23)OCO4)cc(OC)c1O` (stereo not given): the viability, T/C was 96.9% and 98.6% and 100% (compound 0.0316 µM); 90.3% and 81.4% and 90% (compound 0.1 µM); 110% and 86.1% and 104% (compound 0.316 µM); 97.4% and 90% and 94.7% (compound 1 µM); 95.6% and 68.2% and 90.1% (compound 3.16 µM); 77.5% and 61.8% and 75.3% (compound 10 µM). Further, the IC50 (curve of compound) was > 10 µM.
Turning to `COc1cccc2c1C(=O)c1c(O)c3c(c(O)c1C2=O)CC(O)(C(=O)CO)CC3OC1CC(N)C(O)C(C)O1` (stereo not given), the viability, T/C is, setting by setting: (compound 0.0316 µM) 108% and 100% and 89.9%; (compound 0.1 µM) 88.7% and 92.9% and 92.4%; (compound 0.316 µM) 90.9% and 94.7% and 84.1%; (compound 1 µM) 90.9% and 89.8% and 68.8%; (compound 3.16 µM) 74.8% and 60.3% and 59%; (compound 10 µM) 44.5% and 47.9% and 43.7%. Moreover, the IC50 (curve of compound) is 8.21 µM and 8.19 µM and 5.94 µM.
In the case of `COc1ncnc(C2CC2)c1-c1ncc2cnn(Cc3ccc(-c4nc(C(F)(F)F)cn4C(C)C)cc3)c2n1`, the viability, T/C is 86.9% and 97.4% and 103% (compound 0.0316 µM); 92.5% and 96.3% and 95.5% (compound 0.1 µM); 93.3% and 102% and 94.6% (compound 0.316 µM); 81.1% and 99.2% and 93% (compound 1 µM); 71.3% and 107% and 93.5% (compound 3.16 µM); 82% and 78% and 98% (compound 10 µM). Besides, for the setting “curve of compound”, the half-maximal inhibitory concentration (IC50) was > 10 µM.
Turning to `Cc1[nH]c2ccc(F)cc2c1-c1nc2c3cccnc3c3ncccc3c2[nH]1`, the viability, T/C is, setting by setting: (compound 0.1 µM) 103% [middle of 12 runs]; (compound 0.316 µM) 102% [middle of 12 runs]; (compound 1 µM) 97% [middle of 12 runs]; (compound 3.16 µM) 87.2% [middle of 12 runs]; (compound 10 µM) 80.3% [middle of 12 runs]. Further, the IC50 is > 10 µM (compound alone, run of 04/16/2024) and > 10 µM (compound alone, run of 04/22/2024).
In the case of `Cc1cccc(N(C)C(=O)C2C(O)CCN2c2nc(C)cc(C(F)(F)F)c2C#N)c1` (stereo not given), the viability, T/C is 109% and 104% and 116% (compound 0.0316 µM); 90.7% and 90.4% and 93.4% (compound 0.1 µM); 88.3% and 106% and 102% (compound 0.316 µM); 101% and 94.8% and 87.2% (compound 1 µM); 85.2% and 105% and 78.1% (compound 3.16 µM); 87.4% and 90.2% and 74.4% (compound 10 µM). Further, the IC50 (curve of compound) was > 10 µM.
For the molecule `Nc1ccn(C2OC(CO)C(O)C2(F)F)c(=O)n1` (stereo not given), the viability, T/C is 81.8% and 90.5% and 89.3% (compound 0.0316 µM); 77.1% and 75.9% and 76.4% (compound 0.1 µM); 72.5% and 81.7% and 66.8% (compound 0.316 µM); 64.7% and 73.6% and 62.1% (compound 1 µM); 51.1% and 69.9% and 47% (compound 3.16 µM); 54.9% and 64.9% and 48.6% (compound 10 µM). Moreover, under “curve of compound”, the IC50 is > 10 µM and 4.78 µM.
Regarding `O=C(NO)c1cnc(N2CCN(S(=O)(=O)c3ccc4ccccc4c3)CC2)nc1`, the viability, T/C reads like this: (compound 0.0316 µM) 99.2% and 107% and 96.1%; (compound 0.1 µM) 97.4% and 90.7% and 87.3%; (compound 0.316 µM) 98% and 73.8% and 71.3%.
`O=c1[nH]cc(F)c(=O)[nH]1`: the viability, T/C runs as follows: (compound 0.0316 µM) 95.9% and 105% and 110%; (compound 0.1 µM) 85.8% and 99.6% and 96.4%; (compound 0.316 µM) 86% and 106% and 100%; (compound 1 µM) 97.5% and 100% and 88.9%; (compound 3.16 µM) 80.1% and 63.3% and 102%; (compound 10 µM) 86.5% and 98.3% and 92%. In addition, under “curve of compound”, the IC50 was > 10 µM.

The term viability, T/C denotes the ratio of treated to control. One may read the IC50 as the midpoint of a concentration-inhibition curve.
